We go through 100 compounds from ChEMBL document CHEMBL3507680, “University of Dundee, Gates Library screen for HepG2 cell viability”.

The structures appear in SMILES notation.

This data set in a line: Human HepG2 cell viability assay in 384 well format. Type of data set: toxicity, cell-based. Also noted: dose 125 nL, time 70.5 hour; concentration not given beside the values. The following applies: HepG2 cells, read-out: Inhibition.
On to `CC(c1nc(C2CC2)no1)N1CCN(Cc2ccccc2F)CC1` (stereo not given), for which the cytotoxicity at 70.5 h is -6.67%.

Consider `Cc1cc(C)n2c(CCCNS(=O)(=O)c3ccc(F)cc3)nnc2n1`, for which the cytotoxicity at 70.5 h was -8.75%.

With `Cc1nn2cc(CCNC(=O)c3cc(C(C)C)nn3C)nc2s1`, the cytotoxicity at 70.5 h came to 6.04%.

On to `c1ccc2c(c1)nnn2CCCNC1CCOC2(CCOCC2)C1` (stereo not given), for which the cytotoxicity at 70.5 h was -5%.

As for `Cc1[nH]nc2ncc(C(=O)N3CCN(CC(O)C(C)(C)C)CC3)cc12` (stereo not given), the cytotoxicity at 70.5 h was -1.93%.

Take `CN(C)c1nccc(CNS(=O)(=O)c2cc(Cl)cc(Cl)c2)n1`: the cytotoxicity at 70.5 h is -1.35%.

With `COc1cccc(S(=O)(=O)CCNC(C)Cn2cccn2)c1` (stereo not given), the cytotoxicity at 70.5 h came out at 4.6%.

Consider `CCOc1ccc(Cl)cc1CCNC(=O)Cn1ccccc1=O`, for which the cytotoxicity at 70.5 h is -3.35%.

As to `Cc1cc2[nH]c(CN3CCOC(Cc4ccccc4)C3)cc(=O)n2n1` (stereo not given), the cytotoxicity at 70.5 h is 18.7%.

On to `COC(=O)CN(C(=O)c1ccco1)c1cccc(F)c1`, for which the cytotoxicity at 70.5 h amounted to 16.3%.

With `O=C(c1cccnc1)N1CCC2(CC1)CNc1c(F)cccc12`, the cytotoxicity at 70.5 h was -1.96%.

Take `COCCC1COC2(CCN(C(=O)c3ccsc3)CC2)C1` (stereo not given): the cytotoxicity at 70.5 h was -12.7%.

On to `COCC1c2nnn(C)c2CCN1C(=O)c1ccc(OC)c(F)c1` (stereo not given), for which the cytotoxicity at 70.5 h was -7.3%.

As to `CC(C(=O)N1CCCC1)S(=O)(=O)Cc1noc(C(C)(C)C)n1` (stereo not given), the cytotoxicity at 70.5 h was -2.28%.

For `CC[C@@H]1N(Cc2cc(OC)cc(OC)c2)CCC[C@]12CCC(=O)N2C`, the cytotoxicity at 70.5 h is -16.6%.

Consider `CSCc1ccc(C(=O)NCCCNc2ccc(C(F)(F)F)cn2)cc1`, for which the cytotoxicity at 70.5 h was -13.3%.

As for `COC(=O)CNC(=O)CC1COc2ccc(C(=O)N(C)C)cc2N1C` (stereo not given), the cytotoxicity at 70.5 h was -2.55%.

For `C[S+]([O-])CCCNCc1cc(F)ccc1Br` (stereo not given), the cytotoxicity at 70.5 h is 0.821%.

As to `CCc1nc(C2CCCN2C(=O)c2ccc(N(C)C)nn2)no1` (stereo not given), the cytotoxicity at 70.5 h was -0.946%.

Take `Cc1noc(C)c1S(=O)(=O)N(CC(N)=O)CC(C)C`: the cytotoxicity at 70.5 h is -20.2%.

For `CNC(=O)C1=NOC2(CCN(Cc3nccs3)C2)C1` (stereo not given), the cytotoxicity at 70.5 h was -3.01%.

`CCC(NC(=O)NCc1cccc(N(C)C)n1)c1cccs1` (stereo not given): the cytotoxicity at 70.5 h is -11.8%.

For the compound `CNS(=O)(=O)Cc1ccc(CNc2ccc(C#N)cn2)cc1`, the cytotoxicity at 70.5 h is -6.5%.

Take `COC(=O)c1ccc(N2CCN(C(=O)C3CCC3)C(C)C2)cc1` (stereo not given): the cytotoxicity at 70.5 h was determined as 17.6%.

`Cc1cccc2c(CCNC(=O)NCCC[S+](C)[O-])c[nH]c12` (stereo not given): the cytotoxicity at 70.5 h was -1.72%.

`CCCS(=O)(=O)NCc1cccnc1Oc1ccc(C)c(F)c1F`: the cytotoxicity at 70.5 h is -1.35%.

Regarding `CC(C)(C)c1nnc(CN2CCN(CC(O)c3ccccc3)CC2)o1` (stereo not given), the cytotoxicity at 70.5 h is -11.1%.

On to `CCOC1COC2(CCN(Cc3ccc(F)cc3)CC2)C1` (stereo not given), for which the cytotoxicity at 70.5 h was -20.1%.

In the case of `COC(=O)[C@H]1CN(C(=O)c2cscn2)C[C@@H]1c1ccc(F)cc1`, the cytotoxicity at 70.5 h worked out at 0.296%.

Regarding `CCCn1c(O)nnc1SCC1OCCc2ccccc21` (stereo not given), the cytotoxicity at 70.5 h is -7.64%.

Regarding `CC1(C)Cc2ccc(C(=O)NC3CCS(=O)(=O)C3)c(O)c2O1` (stereo not given), the cytotoxicity at 70.5 h was 12.1%.

Turning to `CN(CCCc1cnn(C)c1)C(=O)Nc1cccc2[nH]ncc12`, the cytotoxicity at 70.5 h is -15.7%.

For the compound `CN(C)S(=O)(=O)N1CC[C@]2(O)CCN(c3nccs3)C[C@@H]2C1`, the cytotoxicity at 70.5 h turned out to be 21.2%.

On to `CC(NC(=O)NCCNc1ncccn1)c1cccs1` (stereo not given), for which the cytotoxicity at 70.5 h worked out at 1.09%.

As to `Cc1nc(CCN)cc(N2CCOc3ccc(Cl)cc3C2)n1`, the cytotoxicity at 70.5 h is -5.61%.

For `O=C1CC(c2ccncc2)c2c(c(C(=O)O)cn2-c2ccccc2)N1` (stereo not given), the cytotoxicity at 70.5 h is -8.17%.

For `CCN(CC)CC(=O)N(C)C(c1cccc(F)c1)c1ccccn1` (stereo not given), the cytotoxicity at 70.5 h came to 13.5%.

For `COCC1CN(c2ccc(C)nn2)Cc2cnn(CC3CCOCC3)c21` (stereo not given), the cytotoxicity at 70.5 h was -6.71%.

Consider `O=C(NC1CCCC1)C1CCN(c2cc(-n3ccnc3)ncn2)CC1`, for which the cytotoxicity at 70.5 h is 12.8%.

As for `CN1CCOC(C(=O)Nc2nc(-c3ccccc3F)n[nH]2)C1` (stereo not given), the cytotoxicity at 70.5 h is -6.97%.

For `COCCc1noc(CN2CCC(c3ccccc3C(=O)O)C2)n1` (stereo not given), the cytotoxicity at 70.5 h is -20.1%.

For the compound `Cc1cc(C)cc(C(C)NC(=O)c2ccc(CS(C)(=O)=O)o2)c1` (stereo not given), the cytotoxicity at 70.5 h is -3.42%.

As for `COc1cccc2c(C)c(C(=O)N3CCNCC3C(N)=O)[nH]c12` (stereo not given), the cytotoxicity at 70.5 h is -7.8%.

Consider `Cc1ncsc1-c1nnc(C2CCN(Cc3ccc(Cl)cc3)CC2)o1`, for which the cytotoxicity at 70.5 h amounted to 32.1%.

Turning to `CCc1nc(CN2CCCN(C(=O)CC(F)(F)F)CC2)cs1`, the cytotoxicity at 70.5 h came to 1.28%.

Take `CC1CCN(C(=O)[C@H]2C[C@@H]3CCN(CC4CCOCC4)C[C@H]3O2)CC1`: the cytotoxicity at 70.5 h was -6.03%.

Regarding `O=C(C1CN(CC2CC2)CC12CCOCC2)N1CCCC1` (stereo not given), the cytotoxicity at 70.5 h amounted to 16.3%.

On to `Cc1cccc(C(=O)NCc2ccc(S(N)(=O)=O)cc2)n1`, for which the cytotoxicity at 70.5 h was -12.2%.

Consider `c1cnnc(N2CCCC(NCc3cn4ccccc4n3)C2)c1` (stereo not given), for which the cytotoxicity at 70.5 h was found to be 15.8%.

Regarding `Cn1ccnc1Sc1ccc(N)cn1`, the cytotoxicity at 70.5 h amounted to 0.97%.

For the compound `Cc1ccnc(CC(C)N(C)Cc2ccc3c(c2)OCCO3)c1` (stereo not given), the cytotoxicity at 70.5 h was -0.147%.

In the case of `Cc1cccnc1CC(C)NC1CCSCC1` (stereo not given), the cytotoxicity at 70.5 h is -3.02%.

Consider `CCOCCN1CCN([C@@H]2c3ccccc3C3(CCNCC3)[C@H]2O)CC1`, for which the cytotoxicity at 70.5 h stood at 28.9%.

On to `O=C(c1ccccc1F)N1CCN(CCCn2cncn2)CC1`, for which the cytotoxicity at 70.5 h was -5.46%.

Regarding `Cc1cccc(C(=O)Nc2c(C(N)=O)n[nH]c2C)c1C`, the cytotoxicity at 70.5 h was -5.24%.

Turning to `COc1ccc(-n2nc(C(C)C)nc2COC(C)C)cc1`, the cytotoxicity at 70.5 h amounted to 20.2%.

In the case of `CN(C)CCN1C(=O)CC[C@@H]2[C@H]1CCN2Cc1cccc(C#N)c1`, the cytotoxicity at 70.5 h is -8.56%.

For the compound `CNC(=O)c1cc2c(nc1N(C)C)CCN(S(=O)(=O)N(C)C)CC2`, the cytotoxicity at 70.5 h is 4.98%.

With `CNc1cc2c(nn1)CCN(C(=O)c1coc(Br)c1)C2`, the cytotoxicity at 70.5 h was 17.6%.

Regarding `O=c1ccc2c(n1Cc1ccncc1)CCN(C1CCOC1)CC2` (stereo not given), the cytotoxicity at 70.5 h was found to be 0.608%.

As to `COCCCNS(=O)(=O)c1ccc2c(c1)NC(=O)C(C)O2` (stereo not given), the cytotoxicity at 70.5 h was 1.94%.

Consider `CNC(=O)CN1CCC(NC(=O)N(C)Cc2cc(C)on2)CC1`, for which the cytotoxicity at 70.5 h was -10.8%.

For `Cc1nn2c(NC(=O)CSc3nccn3C)csc2nc1=O`, the cytotoxicity at 70.5 h is 6.49%.

Take `CC(=O)Nc1ccccc1Sc1nc(Br)nn1C`: the cytotoxicity at 70.5 h was -4.88%.

Regarding `COc1ccc(CN2CCN(C(C)=O)CC3(CC(=O)N(C)C3)C2)cc1` (stereo not given), the cytotoxicity at 70.5 h was -0.064%.

On to `Cc1nc(S(=O)(=O)CCn2cccn2)n(C2CCCCC2)c1C`, for which the cytotoxicity at 70.5 h was -4.93%.

As for `Cc1nc(C)n(CC2CCCN2CC(=O)Nc2nncs2)n1` (stereo not given), the cytotoxicity at 70.5 h is -0.801%.

`Cc1ncsc1CN1CCOC(C)(C(N)=O)C1` (stereo not given): the cytotoxicity at 70.5 h was -1.13%.

For `COc1cccc(NC(=O)NC2(c3noc(CN(C)C)n3)CCCC2)c1`, the cytotoxicity at 70.5 h was -10.2%.

With `CC(C)c1ccc(CC2(C)Cc3cc(CC(=O)O)ccc3O2)cc1` (stereo not given), the cytotoxicity at 70.5 h was 17.5%.

In the case of `COc1ccc(NC(=O)C2CCCO2)cc1OCc1cccnc1` (stereo not given), the cytotoxicity at 70.5 h is 49.9%.

As to `CCC(C)N(Cc1ccncc1)Cc1ccc(-n2cccn2)cc1` (stereo not given), the cytotoxicity at 70.5 h is -5.94%.

Turning to `COCc1cc(CNC(=O)c2cc(NC(C)=O)ccc2Cl)n[nH]1`, the cytotoxicity at 70.5 h was -6.43%.

Consider `COc1cccnc1NC(=O)COc1c(C)cccc1C`, for which the cytotoxicity at 70.5 h is 18.3%.

Turning to `Cc1ccc(Br)c(S(=O)(=O)NCc2cnn(C)c2)c1`, the cytotoxicity at 70.5 h is -5.3%.

Regarding `Fc1cccc(Cl)c1CNCc1ccccn1`, the cytotoxicity at 70.5 h was -12.6%.

For the compound `CN1CCN(Cc2nnc(C3CCN(CC4CC4)CC3)n2C)CC1`, the cytotoxicity at 70.5 h is -2.48%.

Take `NC(=O)CN1CCOCC(Cc2ccccc2Cl)C1` (stereo not given): the cytotoxicity at 70.5 h is -3.99%.

As to `CN(C)[C@H]1CCCCN(C(=O)CCc2csc(N)n2)C1`, the cytotoxicity at 70.5 h is -6.16%.

Take `O=S(=O)(NCC(O)c1ccc2c(c1)CCO2)c1ccccc1F` (stereo not given): the cytotoxicity at 70.5 h was -13.3%.

With `CN1CCN([C@@H]2CN(C(=O)c3cc4cccc(F)c4[nH]3)C[C@H]2O)CC1`, the cytotoxicity at 70.5 h was -1.94%.

On to `CC(C)N1CCC2(CC1)C(=O)N(c1cccnc1)c1c(F)cccc12`, for which the cytotoxicity at 70.5 h is -2.98%.

As to `CCC1CN(CCNC(C)=O)CCN1CCOC` (stereo not given), the cytotoxicity at 70.5 h stood at 2.28%.

Consider `O=C(CC1CC1)N1CCC2(CC1)CN(CCn1cccn1)C(=O)CO2`, for which the cytotoxicity at 70.5 h was -4.82%.

On to `CCN1CCN(C(=O)C(C)n2cc(Br)cn2)CC1` (stereo not given), for which the cytotoxicity at 70.5 h is -1.55%.

`Cn1cc(C(=O)NCc2ccc(N3CCCC3)nc2)ccc1=O`: the cytotoxicity at 70.5 h is -8.81%.

On to `Cc1cc(O)cc(=O)n1CCCC(=O)Nc1n[nH]c2cccc(F)c12`, for which the cytotoxicity at 70.5 h is -16.5%.

For the compound `Cc1nc(C(C)NC(=O)c2cn(Cc3ccc(Cl)cc3)nn2)n[nH]1` (stereo not given), the cytotoxicity at 70.5 h is -1.77%.

In the case of `CCC(C(=O)N(Cc1ccccn1)C1CCCCC1)n1cccn1` (stereo not given), the cytotoxicity at 70.5 h was determined as 22.3%.

Regarding `CC(=O)N(CCc1ccccc1)CC(=O)Nc1ccccc1C#N`, the cytotoxicity at 70.5 h is -1.29%.

Take `Cc1ccccc1NC(=O)NCC(C)(O)c1cccs1` (stereo not given): the cytotoxicity at 70.5 h came out at 4.31%.

Take `Cc1ccccc1CSc1nc(N)cc(N2C[C@H](O)[C@@H](N(C)C)C2)n1`: the cytotoxicity at 70.5 h was -2.01%.

Consider `O=C(N1CCCC1)N1CCn2c(Cn3cccn3)cnc2C1`, for which the cytotoxicity at 70.5 h is -0.231%.

In the case of `COc1c(C)cnc(CNC(=O)c2cnc3onc(C)c3c2)c1C`, the cytotoxicity at 70.5 h was determined as 12.5%.

As for `O=C(CN1CCC(c2cc(=O)n3c(n2)CCCCC3)C1)N1CCCCC1` (stereo not given), the cytotoxicity at 70.5 h is -8.93%.

`Nc1nccc(C2CCN(CC3CC3)C2)n1` (stereo not given): the cytotoxicity at 70.5 h is 17.6%.

In the case of `Cn1cc(C(=O)NCc2cn3c(n2)CN(CC2CCOC2)CC3)cn1` (stereo not given), the cytotoxicity at 70.5 h is -110%.

As to `Cc1cccc(C(C(=O)N(C)CCc2cn[nH]c2)N(C)C)c1` (stereo not given), the cytotoxicity at 70.5 h was -8.71%.

Consider `COc1ccc(OCCc2cc(C3CCN(CC(C)C)C3)n[nH]2)cc1` (stereo not given), for which the cytotoxicity at 70.5 h was -2.33%.

Turning to `Cc1ccc(CN2CCOC3(COCCN(S(C)(=O)=O)C3)C2)o1` (stereo not given), the cytotoxicity at 70.5 h is -5.62%.
